Assay: The drug is tested on Bifidobacterium longum subsp. Infantis strain: CCUG52486 for biotransformation. The drug concentrations were measured before and after a 12-h incubation by liquid-chromatography-coupled mass spectrometry (LC–MS)
Details: 2 µM

SMILES | Bacterial Biotransformation
CN(C)C(=O)Oc1cccc([N+](C)(C)C)c1.[Br-] [NEOSTIGMINE BROMIDE] | Compound NOT metabolized
Br.COc1ccc2c(c1)[C@]13CCCC[C@@H]1[C@H](C2)N(C)CC3.O [DEXTROMETHORPHAN HYDROBROMIDE] | Compound NOT metabolized
CN1C(=O)CC(C)(c2ccccc2)C1=O (configuration not stated) [METHSUXIMIDE] | Compound NOT metabolized

Assay: The drug is tested on Bifidobacterium ruminantium strain: fecal isolate for biotransformation. The drug concentrations were measured before and after a 12-h incubation by liquid-chromatography-coupled mass spectrometry (LC–MS)
Details: 2 µM

SMILES | Bacterial Biotransformation
CN(C)C(=O)Oc1cccc([N+](C)(C)C)c1.[Br-] [NEOSTIGMINE BROMIDE] | Compound NOT metabolized
Br.COc1ccc2c(c1)[C@]13CCCC[C@@H]1[C@H](C2)N(C)CC3.O [DEXTROMETHORPHAN HYDROBROMIDE] | Compound NOT metabolized
CN1C(=O)CC(C)(c2ccccc2)C1=O (configuration not stated) [METHSUXIMIDE] | Compound NOT metabolized

Assay: The drug is tested on Collinsella aerofaciens strain: ATCC25986 for biotransformation. The drug concentrations were measured before and after a 12-h incubation by liquid-chromatography-coupled mass spectrometry (LC–MS)
Details: 2 µM

SMILES | Bacterial Biotransformation
CN(C)C(=O)Oc1cccc([N+](C)(C)C)c1.[Br-] [NEOSTIGMINE BROMIDE] | Compound NOT metabolized
Br.COc1ccc2c(c1)[C@]13CCCC[C@@H]1[C@H](C2)N(C)CC3.O [DEXTROMETHORPHAN HYDROBROMIDE] | Compound NOT metabolized
CN1C(=O)CC(C)(c2ccccc2)C1=O (configuration not stated) [METHSUXIMIDE] | Compound NOT metabolized

Assay: The drug is tested on Bacteroides dorei strain: DSM17855 for biotransformation. The drug concentrations were measured before and after a 12-h incubation by liquid-chromatography-coupled mass spectrometry (LC–MS)
Details: phocaeicola dorei, 2 µM

SMILES | Bacterial Biotransformation
CN(C)C(=O)Oc1cccc([N+](C)(C)C)c1.[Br-] [NEOSTIGMINE BROMIDE] | Compound metabolized
Br.COc1ccc2c(c1)[C@]13CCCC[C@@H]1[C@H](C2)N(C)CC3.O [DEXTROMETHORPHAN HYDROBROMIDE] | Compound NOT metabolized
CN1C(=O)CC(C)(c2ccccc2)C1=O (configuration not stated) [METHSUXIMIDE] | Compound metabolized

Assay: The drug is tested on Bacteroides finegoldii strain: DSM17565 for biotransformation. The drug concentrations were measured before and after a 12-h incubation by liquid-chromatography-coupled mass spectrometry (LC–MS)
Details: 2 µM

SMILES | Bacterial Biotransformation
CN(C)C(=O)Oc1cccc([N+](C)(C)C)c1.[Br-] [NEOSTIGMINE BROMIDE] | Compound NOT metabolized
Br.COc1ccc2c(c1)[C@]13CCCC[C@@H]1[C@H](C2)N(C)CC3.O [DEXTROMETHORPHAN HYDROBROMIDE] | Compound NOT metabolized
CN1C(=O)CC(C)(c2ccccc2)C1=O (configuration not stated) [METHSUXIMIDE] | Compound NOT metabolized

Assay: The drug is tested on Bacteroides sp. WH2 strain: WH2 for biotransformation. The drug concentrations were measured before and after a 12-h incubation by liquid-chromatography-coupled mass spectrometry (LC–MS)
Details: bacteroides sp. wh2, 12 h, 2 µM

SMILES | Bacterial Biotransformation
CN(C)C(=O)Oc1cccc([N+](C)(C)C)c1.[Br-] [NEOSTIGMINE BROMIDE] | Compound NOT metabolized
Br.COc1ccc2c(c1)[C@]13CCCC[C@@H]1[C@H](C2)N(C)CC3.O [DEXTROMETHORPHAN HYDROBROMIDE] | Compound NOT metabolized
CN1C(=O)CC(C)(c2ccccc2)C1=O (configuration not stated) [METHSUXIMIDE] | Compound NOT metabolized

Assay: The drug is tested on Bacteroides xylanisolvens strain: DSM18836 for biotransformation. The drug concentrations were measured before and after a 12-h incubation by liquid-chromatography-coupled mass spectrometry (LC–MS)
Details: 2 µM

SMILES | Bacterial Biotransformation
CN1C(=O)CC(C)(c2ccccc2)C1=O (configuration not stated) [METHSUXIMIDE] | Compound NOT metabolized

Assay: The drug is tested on Anaerotruncus colihominis strain: DSM17241 for biotransformation. The drug concentrations were measured before and after a 12-h incubation by liquid-chromatography-coupled mass spectrometry (LC–MS)
Details: 2 µM

SMILES | Bacterial Biotransformation
CN(C)C(=O)Oc1cccc([N+](C)(C)C)c1.[Br-] [NEOSTIGMINE BROMIDE] | Compound NOT metabolized
Br.COc1ccc2c(c1)[C@]13CCCC[C@@H]1[C@H](C2)N(C)CC3.O [DEXTROMETHORPHAN HYDROBROMIDE] | Compound NOT metabolized
CN1C(=O)CC(C)(c2ccccc2)C1=O (configuration not stated) [METHSUXIMIDE] | Compound NOT metabolized

Assay: The drug is tested on Clostridium ramosum strain: DSM1402 for biotransformation. The drug concentrations were measured before and after a 12-h incubation by liquid-chromatography-coupled mass spectrometry (LC–MS)
Details: thomasclavelia ramosa, 2 µM

SMILES | Bacterial Biotransformation
CN(C)C(=O)Oc1cccc([N+](C)(C)C)c1.[Br-] [NEOSTIGMINE BROMIDE] | Compound NOT metabolized
Br.COc1ccc2c(c1)[C@]13CCCC[C@@H]1[C@H](C2)N(C)CC3.O [DEXTROMETHORPHAN HYDROBROMIDE] | Compound NOT metabolized
CN1C(=O)CC(C)(c2ccccc2)C1=O (configuration not stated) [METHSUXIMIDE] | Compound NOT metabolized

Assay: The drug is tested on Eubacterium hallii strain: DSM3353 for biotransformation. The drug concentrations were measured before and after a 12-h incubation by liquid-chromatography-coupled mass spectrometry (LC–MS)
Details: anaerobutyricum hallii, 2 µM

SMILES | Bacterial Biotransformation
Br.COc1ccc2c(c1)[C@]13CCCC[C@@H]1[C@H](C2)N(C)CC3.O [DEXTROMETHORPHAN HYDROBROMIDE] | Compound NOT metabolized
CN1C(=O)CC(C)(c2ccccc2)C1=O (configuration not stated) [METHSUXIMIDE] | Compound NOT metabolized

Assay: The drug is tested on Eubacterium ventriosum strain: ATCC27560 for biotransformation. The drug concentrations were measured before and after a 12-h incubation by liquid-chromatography-coupled mass spectrometry (LC–MS)
Format: ADME
Parameters: dose 2 uM, timepoint 0 vs 12 hours
Details: 2 µM

SMILES | Bacterial Biotransformation
CN(C)C(=O)Oc1cccc([N+](C)(C)C)c1.[Br-] [NEOSTIGMINE BROMIDE] | Compound NOT metabolized
Br.COc1ccc2c(c1)[C@]13CCCC[C@@H]1[C@H](C2)N(C)CC3.O [DEXTROMETHORPHAN HYDROBROMIDE] | Compound NOT metabolized
CN1C(=O)CC(C)(c2ccccc2)C1=O (configuration not stated) [METHSUXIMIDE] | Compound NOT metabolized

Assay: The drug is tested on Ruminococcus gnavus strain: ATCC29149 for biotransformation. The drug concentrations were measured before and after a 12-h incubation by liquid-chromatography-coupled mass spectrometry (LC–MS)
Details: mediterraneibacter gnavus, 2 µM

SMILES | Bacterial Biotransformation
CN(C)C(=O)Oc1cccc([N+](C)(C)C)c1.[Br-] [NEOSTIGMINE BROMIDE] | Compound NOT metabolized
Br.COc1ccc2c(c1)[C@]13CCCC[C@@H]1[C@H](C2)N(C)CC3.O [DEXTROMETHORPHAN HYDROBROMIDE] | Compound NOT metabolized
CN1C(=O)CC(C)(c2ccccc2)C1=O (configuration not stated) [METHSUXIMIDE] | Compound NOT metabolized

Assay: The drug is tested on Providencia stuartii strain: ATCC25827 for biotransformation. The drug concentrations were measured before and after a 12-h incubation by liquid-chromatography-coupled mass spectrometry (LC–MS)
Details: 2 µM

SMILES | Bacterial Biotransformation
CN(C)C(=O)Oc1cccc([N+](C)(C)C)c1.[Br-] [NEOSTIGMINE BROMIDE] | Compound NOT metabolized
Br.COc1ccc2c(c1)[C@]13CCCC[C@@H]1[C@H](C2)N(C)CC3.O [DEXTROMETHORPHAN HYDROBROMIDE] | Compound NOT metabolized

Details: bacteroides fragilis, 12 h, 2 µM
Description: The drug is tested on Bacteroides fragilis strain: NCTC 9343 for biotransformation. The drug concentrations were measured before and after a 12-h incubation by liquid-chromatography-coupled mass spectrometry (LC–MS)

SMILES | Bacterial Biotransformation
CN(C)C(=O)Oc1cccc([N+](C)(C)C)c1.[Br-] [NEOSTIGMINE BROMIDE] | Compound metabolized
Br.COc1ccc2c(c1)[C@]13CCCC[C@@H]1[C@H](C2)N(C)CC3.O [DEXTROMETHORPHAN HYDROBROMIDE] | Compound NOT metabolized
CN1C(=O)CC(C)(c2ccccc2)C1=O (configuration not stated) [METHSUXIMIDE] | Compound NOT metabolized

Details: bacteroides intestinalis, 12 h, 2 µM
Description: The drug is tested on Bacteroides intestinalis strain: DSM17393 for biotransformation. The drug concentrations were measured before and after a 12-h incubation by liquid-chromatography-coupled mass spectrometry (LC–MS)

SMILES | Bacterial Biotransformation
CN(C)C(=O)Oc1cccc([N+](C)(C)C)c1.[Br-] [NEOSTIGMINE BROMIDE] | Compound NOT metabolized
Br.COc1ccc2c(c1)[C@]13CCCC[C@@H]1[C@H](C2)N(C)CC3.O [DEXTROMETHORPHAN HYDROBROMIDE] | Compound NOT metabolized
CN1C(=O)CC(C)(c2ccccc2)C1=O (configuration not stated) [METHSUXIMIDE] | Compound NOT metabolized

Details: bacteroides thetaiotaomicron, 12 h, 2 µM
Description: The drug is tested on Bacteroides thetaiotaomicron strain: 3731 for biotransformation. The drug concentrations were measured before and after a 12-h incubation by liquid-chromatography-coupled mass spectrometry (LC–MS)

SMILES | Bacterial Biotransformation
CN(C)C(=O)Oc1cccc([N+](C)(C)C)c1.[Br-] [NEOSTIGMINE BROMIDE] | Compound metabolized
CN1C(=O)CC(C)(c2ccccc2)C1=O (configuration not stated) [METHSUXIMIDE] | Compound NOT metabolized

Details: limosilactobacillus reuteri cf48-3a, 12 h, 2 µM
Description: The drug is tested on Lactobacillus reuteri CF48-3A strain: BEI HM-102 for biotransformation. The drug concentrations were measured before and after a 12-h incubation by liquid-chromatography-coupled mass spectrometry (LC–MS)

SMILES | Bacterial Biotransformation
CN(C)C(=O)Oc1cccc([N+](C)(C)C)c1.[Br-] [NEOSTIGMINE BROMIDE] | Compound NOT metabolized
Br.COc1ccc2c(c1)[C@]13CCCC[C@@H]1[C@H](C2)N(C)CC3.O [DEXTROMETHORPHAN HYDROBROMIDE] | Compound NOT metabolized

Details: roseburia intestinalis, 12 h, 2 µM
Description: The drug is tested on Roseburia intestinalis strain: L1-82 for biotransformation. The drug concentrations were measured before and after a 12-h incubation by liquid-chromatography-coupled mass spectrometry (LC–MS)

SMILES | Bacterial Biotransformation
CN(C)C(=O)Oc1cccc([N+](C)(C)C)c1.[Br-] [NEOSTIGMINE BROMIDE] | Compound NOT metabolized
Br.COc1ccc2c(c1)[C@]13CCCC[C@@H]1[C@H](C2)N(C)CC3.O [DEXTROMETHORPHAN HYDROBROMIDE] | Compound NOT metabolized

— ChEMBL document CHEMBL5303573, “Mapping human microbiome drug metabolism by gut bacteria and their genes” (Nature, 2019)
